Data: the supplement of paper PMC13380429

Experiments:
[1] = system: A549-ACE2 infected with SARS-CoV-2; assay: SARS-CoV-2 infection rate relative to DMSO; higher = more infection; settings: 24 h
[2] = system: A549-ACE2; assay: drug-induced phospholipidosis relative to tamoxifen; higher = more phospholipidosis
[3] = system: Caco-2; assay: drug sensitivity score (DSS) for viability; higher = more toxic; extreme values may be limits of the assay; settings: 72 h
[4] = system: Calu-3; assay: as above; settings: 72 h
[5] = system: U2OS; assay: as above; settings: 72 h
[6] = system: HepG2; assay: as above; settings: 72 h
[7] = system: Vero E6; assay: as above; settings: 72 h
[8] = system: A549-ACE2 infected with SARS-CoV-2; assay: cell count relative to DMSO; higher = less toxic; settings: 24 h
[9] = system: Caco-2; assay: relative viability EC50 (midpoint between 100% and the lowest measured viability); higher = less toxic; settings: 72 h
[10] = system: Calu-3; assay: as above; settings: 72 h
[11] = system: U2OS; assay: as above; settings: 72 h
[12] = system: HepG2; assay: as above; settings: 72 h
[13] = system: Vero E6; assay: as above; settings: 72 h
[14] = system: A549-ACE2 infected with SARS-CoV-2; assay: morphology score (similarity to uninfected cells); higher = more like uninfected cells; settings: 24 h
[15] = system: Caco-2; assay: cell viability relative to DMSO; higher = less toxic; settings: 72 h
[16] = system: Calu-3; assay: as above; settings: 72 h
[17] = system: U2OS; assay: as above; settings: 72 h
[18] = system: HepG2; assay: as above; settings: 72 h
[19] = system: Vero E6; assay: as above; settings: 72 h
[20] = system: A549-ACE2; assay: phospholipidosis EC50; higher = less potent phospholipidosis inducer

CCc1cc2cc(OC)c(OC)cc2c(Cc2ccccc2)n1 [moxaverine]
Settings	SARS-CoV-2 infection rate, [1] [%]	cell count, [8] [%]	cell viability, [15] [%]	cell viability, [16] [%]	cell viability, [17] [%]	cell viability, [18] [%]	cell viability, [19] [%]	morphology score, [14]
1 nM	–	–	89	95.7	101	101	96.5	–
10 nM	–	–	85.6	92.5	95.1	104	95.4	–
100 nM	–	–	104	95.9	99.6	98.5	92.2	–
0.3 µM	104	99	–	–	–	–	–	-0.15
1000 nM	–	–	90.9	96	95.5	103	95	–
3 µM	95	103	–	–	–	–	–	0.3
10 µM	71	106	–	–	–	–	–	0.51
10000 nM	–	–	105	100	96.8	106	107	–
30 µM	52	109	–	–	–	–	–	0.66

drug-induced phospholipidosis [%], [2]
Settings	0.3 µM	0.833333 µM	3.33333 µM	6.66667 µM	10 µM	30 µM
24 h	1.12	1.68	0.22	1.38	2.55	6.92
48 h	3.81	1.7	2.59	3.75	3.82	13.6
72 h	4.52	0.631	3.05	3.57	2.15	15.7

Settings	drug sensitivity score	relative viability EC50 [µM]
[3]	0	–
[4]	0	–
[5]	0	–
[6]	0	–
[7]	0	–
[9]	–	> 10
[10]	–	> 10
[11]	–	> 10
[12]	–	> 10
[13]	–	> 10

Cn1cc(-c2cnn3c(N)c(Br)c([C@@H]4CCCNC4)nc23)cn1
Settings	SARS-CoV-2 infection rate, [1] [%]	cell count, [8] [%]	cell viability, [15] [%]	cell viability, [16] [%]	cell viability, [17] [%]	cell viability, [18] [%]	cell viability, [19] [%]	morphology score, [14]
1 nM	–	–	92.5	99.2	98.3	98.8	102	–
10 nM	–	–	100	95.1	92	101	102	–
100 nM	–	–	93.4	97.6	100	88.7	98.2	–
0.3 µM	102	99	–	–	–	–	–	-0.17
1000 nM	–	–	97.7	93.3	73.4	75	95.7	–
3 µM	87	110	–	–	–	–	–	0.41
10 µM	50	106	–	–	–	–	–	0.67
10000 nM	–	–	86.2	100	13.7	52	82.1	–
30 µM	13	79	–	–	–	–	–	0.84

drug-induced phospholipidosis [%], [2]
Settings	0.3 µM	0.833333 µM	3.33333 µM	6.66667 µM	10 µM	30 µM
24 h	0.22	3.23	6.07	18.9	19.9	52.2
48 h	3.9	4.18	8.86	16.4	18.3	60.6
72 h	6.85	4.55	10.4	11.1	15.4	–

Settings	drug sensitivity score	relative viability EC50 [µM]
[3]	0	–
[4]	0	–
[5]	8.7	–
[6]	5.7	–
[7]	0.9	–
[9]	–	> 10
[10]	–	> 10
[11]	–	1.38
[13]	–	> 10

Cc1ccccc1-n1c(Cn2ncc3c(N)ncnc32)nc2cccc(C)c2c1=O [PIK-293]
Settings	SARS-CoV-2 infection rate [%]	cell count [%]	cell viability [%]	morphology score	phospholipidosis EC50 [µM]
[1], 0.3 µM	89	–	–	–	–
[1], 3 µM	27	–	–	–	–
[1], 10 µM	70	–	–	–	–
[8], 0.3 µM	–	84	–	–	–
[8], 3 µM	–	98	–	–	–
[8], 10 µM	–	65	–	–	–
[14], 0.3 µM	–	–	–	0.21	–
[14], 3 µM	–	–	–	0.76	–
[14], 10 µM	–	–	–	0.02	–
[15], 1 nM	–	–	101	–	–
[15], 10 nM	–	–	94.2	–	–
[15], 100 nM	–	–	91.1	–	–
[15], 1000 nM	–	–	95.8	–	–
[15], 10000 nM	–	–	89.9	–	–
[16], 1 nM	–	–	96.8	–	–
[16], 10 nM	–	–	90.5	–	–
[16], 100 nM	–	–	93	–	–
[16], 1000 nM	–	–	111	–	–
[16], 10000 nM	–	–	102	–	–
[17], 1 nM	–	–	91.4	–	–
[17], 10 nM	–	–	100	–	–
[17], 100 nM	–	–	93.6	–	–
[17], 1000 nM	–	–	100	–	–
[17], 10000 nM	–	–	95.5	–	–
[18], 1 nM	–	–	95.5	–	–
[18], 10 nM	–	–	90	–	–
[18], 100 nM	–	–	104	–	–
[18], 1000 nM	–	–	95	–	–
[18], 10000 nM	–	–	99.4	–	–
[19], 1 nM	–	–	102	–	–
[19], 10 nM	–	–	99	–	–
[19], 100 nM	–	–	105	–	–
[19], 1000 nM	–	–	101	–	–
[19], 10000 nM	–	–	104	–	–
[20], 24 h	–	–	–	–	2.86
[20], 48 h	–	–	–	–	3.88

drug-induced phospholipidosis [%], [2]
Settings	0.3 µM	0.833333 µM	3.33333 µM	6.66667 µM	10 µM
24 h	2.65	16.4	52.5	87.2	81
48 h	5.81	14	48.3	99.5	–
72 h	3.73	6.21	–	–	–

Settings	drug sensitivity score	relative viability EC50 [µM]
[3]	0	–
[4]	0	–
[5]	0	–
[6]	0	–
[7]	0	–
[9]	–	> 10
[10]	–	> 10
[11]	–	> 10
[12]	–	> 10
[13]	–	> 10

c1cc(CN2CCCCC2)cc(OCCCNc2nc3ccccc3s2)c1 [zolantidine]
Settings	SARS-CoV-2 infection rate [%]	cell count [%]	cell viability [%]	morphology score	phospholipidosis EC50 [µM]
[1], 0.3 µM	98	–	–	–	–
[1], 3 µM	50	–	–	–	–
[1], 10 µM	20	–	–	–	–
[1], 30 µM	12	–	–	–	–
[8], 0.3 µM	–	101	–	–	–
[8], 3 µM	–	118	–	–	–
[8], 10 µM	–	119	–	–	–
[8], 30 µM	–	124	–	–	–
[14], 0.3 µM	–	–	–	-0.12	–
[14], 3 µM	–	–	–	0.76	–
[14], 10 µM	–	–	–	0.9	–
[14], 30 µM	–	–	–	0.62	–
[15], 1 nM	–	–	104	–	–
[15], 10 nM	–	–	93.4	–	–
[15], 100 nM	–	–	99.7	–	–
[15], 1000 nM	–	–	96.6	–	–
[15], 10000 nM	–	–	86.4	–	–
[16], 1 nM	–	–	89.8	–	–
[16], 10 nM	–	–	88.3	–	–
[16], 100 nM	–	–	108	–	–
[16], 1000 nM	–	–	98.1	–	–
[16], 10000 nM	–	–	84.9	–	–
[17], 1 nM	–	–	101	–	–
[17], 10 nM	–	–	95.9	–	–
[17], 100 nM	–	–	104	–	–
[17], 1000 nM	–	–	97.6	–	–
[17], 10000 nM	–	–	94.6	–	–
[18], 1 nM	–	–	99.1	–	–
[18], 10 nM	–	–	91.8	–	–
[18], 100 nM	–	–	97.6	–	–
[18], 1000 nM	–	–	102	–	–
[18], 10000 nM	–	–	89.5	–	–
[19], 1 nM	–	–	90.2	–	–
[19], 10 nM	–	–	103	–	–
[19], 100 nM	–	–	98.3	–	–
[19], 1000 nM	–	–	102	–	–
[19], 10000 nM	–	–	94.4	–	–
[20], 24 h	–	–	–	–	7.87
[20], 48 h	–	–	–	–	9.34
[20], 72 h	–	–	–	–	12.4

drug-induced phospholipidosis [%], [2]
Settings	0.3 µM	0.833333 µM	3.33333 µM	6.66667 µM	10 µM	30 µM
24 h	3.01	2.56	9.9	36.9	64.3	91.7
48 h	3.2	2.85	4.98	28.7	56.2	97.1
72 h	5.43	2.63	7.7	25.4	50.3	116

Settings	drug sensitivity score	relative viability EC50 [µM]
[3]	0.2	–
[4]	0.4	–
[5]	0	–
[6]	0	–
[7]	0	–
[9]	–	> 10
[10]	–	> 10
[11]	–	> 10
[12]	–	> 10
[13]	–	> 10
